Ki data for one substance are collected here from patent publication US20050287552A1, “Carbohydrate encapsulated nanoparticle based affinity mass spectrometry” (Academia Sinica, Office of Public Affairs (Technology …, priority 2003, published 2005).

The experiment has as its target Con A (Canavalia ensiformis, UniProt P02866). Description: SPR competition binding assay for Con A. As to conditions: Con A tetramer 0.5 uM, pre-incubated 1 hr with inhibitor. As for the experimental part:
A self-assembled monolayer composed of 20% mannopyranoside ligand and 80% thiobutanol mixture was generated on a J1 biosensor chip (See FIG. 9). In particular, immobilization of ligand to the biosensor chip was preformed in BIAcore 3000 instrument. A mixture of 4-mercapto-1-butanol (Ligand A) and 5-thiopentyl α-D-mannopyranoside (Ligand B) in deionized water was injected into a flow cell with the J1 biochip.
Next, the binding affinity of Con A for this chip was determined by titration with a series of Con A concentrations to generate multiple SPR curves. In particular, Con A was dissolved in sample buffer (1.0 mL, 20 mM HEPES, pH 7.0, 90 mM NaCl with 1 mM MnCl2 and CaCl2) and then filtered by a syringe. Con A solution (50 μL) was injected over immobilized biosensor surface and allowed 260 seconds for dissociation and then followed by regeneration buffer. A set of SPR response curves was obtained after different concentrations of Con A solution were applied (See FIG. 10A, showing curves for 6, 3, 1.5, 0.38, 0.19 uM of Con A (top to bottom)).
Competition assays were then conducted. […] The mixture (50 uL) was then injected and the flow rate was controlled at 60 uL/minute. The equilibrium binding response values was collected at equilibrium binding portion of the curve (260 seconds post-injection). […]

Take α-D-methyl-mannopyrannoside [αMeMan]: the affinity corresponds to a Ki of 200 µM.
